# Results: patent US9714247B2, “Multiple kinase pathway inhibitors” (Mannkind Corporation, priority 2012, dated 2017)
# Legend:
# [1] = system: phosphorylation of SFKs in Ramos cells; test: SFK phosphorylation (Tyr 416) by flow cytometry; assay type: cell-based, human
# Outline: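 Ramos cells pretreated with compound 2 hrs in RPMI with 5% FBS, then stimulated 10 minutes with H2O2/anti-IgM. Phospho-Tyr 416 SFK detected by flow cytometry with an antibody that may cross-react across Src family members, plus fluorescent secondary antibody.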
# DoHH-2 tumor xenograft = assay type: in vivo
smiles,measurement,setting,value
"CCN(CC)CCOc1ccc(Nc2cc3c(cn2)cc(-c2ccccc2)c(=O)n3CC)nc1 [Compound 1, 7-[5-(2-Diethylamino-ethoxy)-pyridin-2-ylamino]-1-ethyl-3-phenyl-1H-[1, 6]naphthyridin-2-one]",inhibition at 0.3 µM,"[1]; Homo sapiens, 0.3 uM, flow cytometry, SFK phosphorylated at Tyr 416, read-out: pSRC % inhibition",31%
same,Inhibition of SFK phosphorylation (flow cytometry),[1]; incubated 2 hrs,dose-dependent inhibition of SFK phosphorylation
same,Effect on tumor growth compared with 70 mg/kg PCI-32765,DoHH-2 tumor xenograft; 62.5 mg/kg,more marked effect
same,Mortality,"DoHH-2 tumor xenograft; 62.5 mg/kg group, day 17",2 animals
same,Estimated maximal tolerated dose,"DoHH-2 tumor xenograft; IP, SCID mice",~62.5 mg/kg/day
same,Tumor growth inhibition,"DoHH-2 tumor xenograft; highest dose 62.5 mg/kg/day IP, day 15, 19 and 21",significantly inhibited tumor growth
